{
  "source": "patent US9133168B2",
  "about": "“Pyrimidine derivatives, preparation thereof, and pharmaceutical use thereof as akt(pkb) phosphorylation inhibitors” (SANOFI, priority 2010, dated 2015)",
  "data": [
    {"tested_on": "AKT protein phosphorylated on serine 473 (P-AKT-S473) in PC3 human prostate carcinoma cells", "experiment": "pAKT expression in PC3 human prostate carcinoma cells, MSD Multi-spot Biomarker detection (Test A)", "type": "cell-based", "conditions": "Homo sapiens, PC-3, PC3 cells, 1 to 2 h incubation, P-AKT-S473, absolute IC50, mean of two independent experiments", "experimental": "(§1) The inhibitory activity of the molecules on AKT phosphorylation is measured using the MSD Multi-spot Biomarker detection technique from Meso Scale Discovery also described below. […] The primary antibody specific for […]) is coated on to an electrode in each well of the 96-well plates of the MSD kit: after the addition of a protein lysate to each well, the signal is visualized by adding a secondary detection antibody labeled with an electrochemiluminescent compound. The procedure followed is the one described in the kit. […] On day 2, the cells are incubated in the presence or absence of the test products for 1 to 2 h at 37° C. in the presence of 5% CO2. The molecules, diluted in dimethyl sulfoxide (DMSO Sigma #D2650), are added from a 20-times concentrated stock solution, the final percentage of DMSO being 0.1%. The molecules are tested either at a single concentration of less than or equal to 10 μM, or at increasing concentrations in a range that can extend from less than 1 nM to 10 μM. After this incubation, the cells are lysed for the preparation of the proteins. […] At this stage, the plates containing the lysates can be frozen at -20° C. or at -80° C. The wells of the 96 well plates of the MSD kit are saturated for 1 h at ambient temperature with the blocking solution of the MSD kit. Four washes are carried out with 150 μl of Tris Wash Buffer of the MSD kit. The lysates previously prepared are transferred into the 96-well multi-spot plates of the MSD kit and incubated for 1 h at ambient temperature, with shaking. Four washes are carried out with 150 μl of Tris Wash Buffer of the MSD kit. 25 μl of the MSD sulfo-tag detection antibody solution are added to the wells and incubated for 1 h at ambient temperature, with shaking. Four washes are carried out with 150 μl of Tris Wash Buffer of the MSD kit. 150 μl of Read Buffer of the MSD kit are added to the wells and the plates are read immediately on the S12400 instrument from Meso Scale Discovery. The instrument measures a signal for each well. Wells without cells and containing the lysis buffer serve to determine the background noise that will be subtracted from all the measurements (min). The wells containing cells in the absence of product and in the presence of 0.1% DMSO are considered to be the 100% signal (max). The percentage inhibition is calculated for each concentration of product tested, according to the following formula: (1-((test-min)/(max-min)))×100. […] Two independent experiments make it possible to calculate the mean of the IC50 values.", "units": {"IC50": "µM"}, "values": [
      {"compound": "CC(C)C1Cc2ccccc2N1C(=O)Cc1nc(N2CCOCC2)cc(=O)[nH]1", "note": "(single isomer, unassigned; (-)) [Example 39c, (−)-2-[2-(2-isopropyl-2,3-dihydroindol-1-yl)-2-oxoethyl]-6-morpholin-4-yl-3H-pyrimidin-4-one]", "IC50": 0.004},
      {"compound": "CC(F)(C(=O)N1CCc2c(F)cccc21)c1nc(N2CCOCC2)cc(=O)[nH]1", "note": "(single isomer, unassigned; (-)) [Example 44c, (−)-2-[2-fluoro-1-(4-fluoro-2,3-dihydro-1H-indol-1-yl)-1-oxopropan-2-yl]-6-(morpholin-4-yl)pyrimidin-4(3H)-one]", "IC50": 0.14},
      {"compound": "O=C(Cc1nc(N2CCOCC2)c(F)c(=O)[nH]1)N1CCc2c(F)cccc21", "note": "[Example 1a, 5-fluoro-2-[2-(4-fluoro-2,3-dihydro-1H-indol-1-yl)-2-oxoethyl]-6-(morpholin-4-yl)pyrimidin-4(3H)-one]", "IC50": 0.022},
      {"compound": "O=C(Cc1nc(N2CCOCC2)cc(=O)[nH]1)N1CC2(CC2)c2ccccc21", "note": "[Example 1d, 6-(morpholin-4-yl)-2-[2-oxo-2-(spiro[cyclopropan-1,3′-indol]-1′(2′H)-yl)ethyl]pyrimidin-4(3H)-one]", "IC50": 0.026},
      {"compound": "C[C@H]1Cc2ccccc2N1C(=O)Cc1nc(N2CCOCC2)cc(=S)[nH]1", "note": "[Example 1e, 1-((S)-2-methyl-2,3-dihydroindol-1-yl)-2-(4-morpholin-4-yl-6-thioxo-1,6-dihydropyrimidin-2-yl)ethanone]", "IC50": 0.022},
      {"compound": "CC(C(=O)N1CCc2c(F)cccc21)c1nc(N2CCOCC2)c(F)c(=O)n1C", "note": "(stereo not shown) [Example 2a, 5-fluoro-2-[1-(4-fluoro-2,3-dihydro-1H-indol-1-yl)-1-oxopropan-2-yl]-3-methyl-6-(morpholin-4-yl)pyrimidin-4(3H)-one]", "IC50": 0.938},
      {"compound": "O=C(Cc1nc(N2CCOCC2)cc(=O)[nH]1)N1CCc2c(-c3ccccc3)cccc21", "note": "[Example 2d, 6-(morpholin-4-yl)-2-[2-oxo-2-(4-phenyl-2,3-dihydro-1H-indol-1-yl)ethyl]pyrimidin-4(3H)-one]", "IC50": 0.024},
      {"compound": "C[C@H]1Cc2ccccc2N1C(=S)Cc1nc(N2CCOCC2)cc(=S)[nH]1", "note": "[Example 2e, 2-[2-((S)-2-methyl-2,3-dihydroindol-1-yl)-2-thioxoethyl]-6-morpholin-4-yl-3H-pyrimidine-4-thione]", "IC50": 0.004},
      {"compound": "Cn1c(CC(=O)N2CCc3c(F)cccc32)nc(N2CCOCC2)c(F)c1=O", "note": "[Example 3a, 5-fluoro-2-[2-(4-fluoro-2,3-dihydro-1H-indol-1-yl)-2-oxoethyl]-3-methyl-6-(morpholin-4-yl)pyrimidin-4(3H)-one]", "IC50": 0.158},
      {"compound": "O=C(Cc1nc(N2CCOCC2)cc(=O)[nH]1)N1CCc2c(OC(F)(F)F)cccc21", "note": "[Example 3d, 6-(morpholin-4-yl)-2-{2-oxo-2-[4-(trifluoromethoxy)-2,3-dihydro-1H-indol-1-yl]ethyl}pyrimidin-4(3H)-one]", "IC50": 0.054},
      {"compound": "C[C@@H]1Cc2ccccc2N1C(=O)Cc1nc(N2CCOCC2)cc(=S)[nH]1", "note": "[Example 3e, 1-((R)-2-methyl-2,3-dihydroindol-1-yl)-2-(4-morpholin-4-yl-6-thioxo-1,6-dihydropyrimidin-2-yl)ethanone]", "IC50": 0.008},
      {"compound": "C[C@@H]1Cc2ccccc2N1C(=O)Cc1nc(N2CCOCC2)c(F)c(=O)[nH]1", "note": "[Example 4a, 5-fluoro-2-{2-[(2R)-2-methyl-2,3-dihydro-1H-indol-1-yl]-2-oxoethyl}-6-(morpholin-4-yl)pyrimidin-4(3H)-one]", "IC50": 0.503},
      {"compound": "Cn1c(CC(=O)N2CC(C)(C)c3c(Cl)cccc32)nc(N2CCOCC2)cc1=O", "note": "[Example 4c, 2-[2-(4-chloro-3,3-dimethyl-2,3-dihydro-1H-indol-1-yl)-2-oxoethyl]-3-methyl-6-(morpholin-4-yl)pyrimidin-4(3H)-one]", "IC50": 0.035},
      {"compound": "Cn1c(CC(=O)N2CCc3c2cccc3C(F)(F)F)nc(N2CCOCC2)cc1=O", "note": "[Example 4d, 3-methyl-6-(morpholin-4-yl)-2-{2-oxo-2-[4-(trifluoromethyl)-2,3-dihydro-1H-indol-1-yl]ethyl}pyrimidin-4(3H)-one]", "IC50": 0.063},
      {"compound": "C[C@H]1Cc2ccccc2N1C(=O)Cc1nc(N2CCOCC2)cc(=S)n1C", "note": "[Example 4e, 1-((S)-2-methyl-2,3-dihydroindol-1-yl)-2-(1-methyl-4-morpholin-4-yl-6-thioxo-1,6-dihydropyrimidin-2-yl)ethanone]", "IC50": 0.041},
      {"compound": "C[C@H]1Cc2ccccc2N1C(=O)Cc1nc(N2CCOCC2)c(F)c(=O)[nH]1", "note": "[Example 5a, 5-fluoro-2-{2-[(2S)-2-methyl-2,3-dihydro-1H-indol-1-yl]-2-oxoethyl}-6-(morpholin-4-yl)pyrimidin-4(3H)-one]", "IC50": 0.015},
      {"compound": "CC1(C)CN(C(=O)Cc2nc(N3CCOCC3)cc(=O)[nH]2)c2cccc(Cl)c21", "note": "[Example 5c, 2-[2-(4-chloro-3,3-dimethyl-2,3-dihydro-1H-indol-1-yl)-2-oxoethyl]-6-(morpholin-4-yl)pyrimidin-4(3H)-one]", "IC50": 0.014}
    ]},
    {"tested_on": "AKT protein phosphorylated on serine 473 (P-AKT-S473) in PC3 human prostate carcinoma cells", "experiment": "pAKT expression in PC3 human prostate carcinoma cells, MSD Multi-spot Biomarker detection (Test A)", "type": "cell-based", "conditions": "PC3 cells, 1 to 2 h incubation, P-AKT-S473, absolute IC50, mean of two independent experiments", "experimental": "as §1", "units": {"IC50": "µM"}, "values": [
      {"compound": "CC1Cc2c(OC(F)F)cccc2N1C(=O)Cc1nc(N2CCOCC2)cc(=O)[nH]1", "note": "(single isomer, unassigned; (-)) [Example 30d, (−)-2-{2-[4-(difluoromethoxy)-2-methyl-2,3-dihydro-1H-indol-1-yl]-2-oxoethyl}-6-(morpholin-4-yl)pyrimidin-4(3H)-one]", "IC50": 0.008},
      {"compound": "CC1Cc2c(Br)cccc2N1C(=O)Cc1nc(N2CCOCC2)cc(=O)n1C", "note": "(single isomer, unassigned; (-)) [Example 32c, (−)-2-{2-[4-bromo-2-methyl-2,3-dihydro-1H-indol-1-yl]-2-oxoethyl}-3-methyl-6-(morpholin-4-yl)pyrimidin-4(3H)-one]", "IC50": 0.014},
      {"compound": "CC1Cc2c(OC(F)F)cccc2N1C(=O)Cc1nc(N2CCOCC2)cc(=O)n1C", "note": "(single isomer, unassigned; (-)) [Example 32d, (−)-2-{2-[4-(difluoromethoxy)-2-methyl-2,3-dihydro-1H-indol-1-yl]-2-oxoethyl}-3-methyl-6-(morpholin-4-yl)pyrimidin-4(3H)-one]", "IC50": 0.06},
      {"compound": "CC1Cc2c(Cl)cccc2N1C(=O)Cc1nc(N2CCOCC2)cc(=O)n1C", "note": "(single isomer, unassigned; (-)) [Example 34c, (−)-2-{2-[4-chloro-2-methyl-2,3-dihydro-1H-indol-1-yl]-2-oxoethyl}-3-methyl-6-(morpholin-4-yl)pyrimidin-4(3H)-one]", "IC50": 0.242},
      {"compound": "O=C(Cc1nc(N2CCOCC2)cc(=O)[nH]1)N1c2ccccc2CC1C1CC1", "note": "(single isomer, unassigned; (-)) [Example 35d, (−)-2-[2-(2-cyclopropyl-2,3-dihydroindol-1-yl)-2-oxoethyl]-6-morpholin-4-yl-3H-pyrimidin-4-one]", "IC50": 0.005},
      {"compound": "CC1Cc2c(cccc2C(F)(F)F)N1C(=O)Cc1nc(N2CCOCC2)cc(=O)[nH]1", "note": "(single isomer, unassigned; (-)) [Example 37d, (−)-2-{2-[2-methyl-4-(trifluoromethyl)-2,3-dihydro-1H-indol-1-yl]-2-oxoethyl}-6-(morpholin-4-yl)pyrimidin-4(3H)-one]", "IC50": 0.002},
      {"compound": "CC1Cc2c(ccc(F)c2Cl)N1C(=O)Cc1nc(N2CCOCC2)cc(=O)[nH]1", "note": "(single isomer, unassigned; (-)) [Example 38c, (−)-2-{2-[4-chloro-5-fluoro-2-methyl-2,3-dihydro-1H-indol-1-yl]-2-oxoethyl}-6-(morpholin-4-yl)pyrimidin-4(3H)-one]", "IC50": 0.001},
      {"compound": "CCC1Cc2ccccc2N1C(=O)Cc1nc(N2CCOCC2)cc(=O)[nH]1", "note": "(single isomer, unassigned; (-)) [Example 43c, (−)-2-[2-(2-ethyl-2,3-dihydroindol-1-yl)-2-oxoethyl]-6-morpholin-4-yl-3H-pyrimidin-4-one]", "IC50": 0.014},
      {"compound": "CC1CN(c2cc(=O)[nH]c(CC(=O)Nc3ccc(F)cc3)n2)CCO1", "note": "(stereo not shown) [Example 1b, N-(4-fluorophenyl)-2-[4-(2-methylmorpholin-4-yl)-6-oxo-1,6-dihydropyrimidin-2-yl]acetamide]", "IC50": 0.026},
      {"compound": "CC1Cc2c(Cl)cccc2N1C(=O)Cc1nc(N2CCOCC2)cc(=O)[nH]1", "note": "(stereo not shown) [Example 1c, 2-[2-(4-chloro-2-methyl-2,3-dihydro-1H-indol-1-yl)-2-oxoethyl]-6-(morpholin-4-yl)pyrimidin-4(3H)-one]", "IC50": 0.005},
      {"compound": "O=C(Cc1nc(N2CCOC(CF)C2)cc(=O)[nH]1)Nc1ccc(F)cc1", "note": "(stereo not shown) [Example 3b, 2-[4-(2-fluoromethylmorpholin-4-yl)-6-oxo-1,6-dihydropyrimidin-2-yl]-N-(4-fluorophenyl)acetamide]", "IC50": 0.271}
    ]}
  ]
}
